Assay results as given in ChEMBL document CHEMBL1201862, “PubChem BioAssay data set” (2004).
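Results reflect a 48-hour exposure of cells in 96-well plates to compound at five concentrations. The concentration for 50% growth inhibition is given as GI50.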 Activity calls are given as the source filed them. Cut-off read from the data, not from the text of the source: active = GI50 up to about 1.1 µM and inactive = higher. Square brackets hold non-standard residues; d marks the D form. Peptide text beside a SMILES is read from it. * marks the point of attachment. Boc = CC(C)(C)OC(=O)*; Lac = C[CH](O)C(=O)O; OBn = c1ccc(CO*)cc1

Legend:
Experiment in all cases: NCI anticancer screen, dose series, 48 h
A549 = tested on: A549
CCRF-CEM = tested on: CCRF-CEM
EKVX = tested on: EKVX
HCT-116 = tested on: HCT-116
KM12 = tested on: KM12
MOLT-4 = tested on: MOLT-4
NCI-H23 = tested on: NCI-H23
OVCAR-3 = tested on: OVCAR-3
OVCAR-8 = tested on: OVCAR-8
SF-539 = tested on: SF-539
SK-MEL-28 = tested on: SK-MEL-28
SK-MEL-5 = tested on: SK-MEL-5
SW-620 = tested on: SW-620
UACC-257 = tested on: UACC-257
UO-31 = tested on: UO-31
CAKI-1 = tested on: CAKI-1
NCI-H460 = tested on: NCI-H460
SF-295 = tested on: SF-295
SK-OV-3 = tested on: SK-OV-3
SNB-75 = tested on: SNB-75

Measured: GI50

COc1ccc(C(=O)NNC(=O)c2nsc3ccccc23)cc1
inactive: A549 > 100 µM | CCRF-CEM 24.7 µM | EKVX 27.2 µM | HCT-116 83.6 µM | KM12 > 100 µM | MOLT-4 34 µM | NCI-H23 > 100 µM | OVCAR-3 30.8 µM | OVCAR-8 60.1 µM | SF-539 > 100 µM | SK-MEL-28 > 100 µM | SK-MEL-5 > 100 µM | SW-620 > 100 µM | UACC-257 > 100 µM | UO-31 > 100 µM

CCOC(=O)C1CCn2c(nc3c2c(=O)n(C)c(=O)n3C)S1 (stereo unspecified)
inactive: A549 > 100 µM | CAKI-1 > 100 µM | CCRF-CEM > 100 µM | EKVX > 100 µM | HCT-116 > 100 µM | MOLT-4 > 100 µM | NCI-H23 > 100 µM | NCI-H460 > 100 µM | OVCAR-3 > 100 µM | OVCAR-8 > 100 µM | SF-295 > 100 µM | SF-539 > 100 µM | SK-MEL-5 > 100 µM | SK-OV-3 > 100 µM | SNB-75 > 100 µM | SW-620 > 100 µM | UACC-257 > 100 µM

O=C(NN1C(=O)CSC1c1cccc(F)c1)c1ccncc1 (stereo unspecified)
inactive: A549 > 100 µM | CAKI-1 > 100 µM | CCRF-CEM > 100 µM | EKVX > 100 µM | KM12 > 100 µM | MOLT-4 > 100 µM | NCI-H23 > 100 µM | OVCAR-8 > 100 µM | SF-295 > 100 µM | SF-539 > 100 µM | SK-MEL-28 > 100 µM | SK-MEL-5 > 100 µM | SK-OV-3 > 100 µM | SNB-75 > 100 µM | SW-620 > 100 µM | UACC-257 > 100 µM | UO-31 > 100 µM

C[C@H]1S[C@@H](c2ccc(Cl)cc2Cl)N(NC(=O)c2ccncc2)C1=O
inactive: CAKI-1 56.2 µM | CCRF-CEM 11.3 µM | HCT-116 34.5 µM | KM12 > 100 µM | MOLT-4 18.4 µM | NCI-H23 50.4 µM | NCI-H460 58.2 µM | OVCAR-3 35.6 µM | OVCAR-8 > 100 µM | SK-MEL-28 45.2 µM | SK-MEL-5 44.8 µM | SK-OV-3 > 100 µM | SNB-75 80.5 µM | UO-31 37 µM

Cc1cc(=O)c2c([nH]1)NS(=O)(=O)NC2=O
inactive: A549 > 100 µM | CAKI-1 > 100 µM | CCRF-CEM > 100 µM | EKVX > 100 µM | HCT-116 > 100 µM | KM12 > 100 µM | MOLT-4 > 100 µM | NCI-H23 > 100 µM | OVCAR-3 > 100 µM | OVCAR-8 > 100 µM | SF-295 > 100 µM | SF-539 > 100 µM | SK-MEL-28 > 100 µM | SK-OV-3 > 100 µM | SNB-75 > 100 µM | SW-620 > 100 µM | UACC-257 > 100 µM | UO-31 > 100 µM

Cc1n[nH]c(CC#N)n1
inactive: A549 > 100 µM | CCRF-CEM > 100 µM | EKVX > 100 µM | HCT-116 > 100 µM | KM12 > 100 µM | MOLT-4 > 100 µM | NCI-H23 > 100 µM | OVCAR-3 > 100 µM | OVCAR-8 > 100 µM | SF-295 > 100 µM | SF-539 > 100 µM | SK-MEL-5 > 100 µM | SK-OV-3 > 100 µM | SNB-75 > 100 µM | SW-620 > 100 µM | UACC-257 > 100 µM | UO-31 > 100 µM

Cc1ccc(/N=N/C(C(=O)c2ccccc2)C(=O)c2ccccc2)cc1
inactive: A549 27.3 µM | CAKI-1 27.4 µM | CCRF-CEM 10.9 µM | EKVX 30.7 µM | HCT-116 14.9 µM | KM12 36.1 µM | MOLT-4 10.2 µM | NCI-H23 20.5 µM | OVCAR-3 29.1 µM | OVCAR-8 28.6 µM | SF-295 24.7 µM | SF-539 22.4 µM | SK-MEL-28 31.6 µM | SK-MEL-5 17.7 µM | SK-OV-3 47.1 µM | SNB-75 20.6 µM | SW-620 29.1 µM | UACC-257 29.4 µM | UO-31 14.8 µM

CCOc1ccc2c(C)cc(=O)oc2c1
inactive: A549 > 100 µM | CAKI-1 > 100 µM | CCRF-CEM > 100 µM | EKVX > 100 µM | HCT-116 > 100 µM | KM12 > 100 µM | MOLT-4 > 100 µM | NCI-H23 > 100 µM | NCI-H460 > 100 µM | OVCAR-3 > 100 µM | OVCAR-8 > 100 µM | SF-295 > 100 µM | SF-539 > 100 µM | SK-MEL-28 > 100 µM | SK-MEL-5 > 100 µM | SNB-75 > 100 µM | SW-620 > 100 µM | UACC-257 > 100 µM | UO-31 > 100 µM

CC1CC2=C(S(=O)(=O)c3ccccc3)CC(S(=O)(=O)c3ccccc3)(S(=O)(=O)c3ccccc3)CC21 (stereo unspecified)
inactive: A549 > 100 µM | CCRF-CEM 27.4 µM | EKVX > 100 µM | HCT-116 21.9 µM | KM12 > 100 µM | MOLT-4 > 100 µM | NCI-H23 > 100 µM | NCI-H460 > 100 µM | OVCAR-3 > 100 µM | OVCAR-8 > 100 µM | SF-295 > 100 µM | SF-539 > 100 µM | SK-MEL-28 > 100 µM | SK-MEL-5 > 100 µM | SK-OV-3 > 100 µM | SNB-75 25.1 µM | SW-620 > 100 µM | UACC-257 > 100 µM | UO-31 > 100 µM

Cc1cc(=O)oc2c1cc1ccc3cccc4ccc2c1c34
inactive: CAKI-1 > 100 µM | CCRF-CEM > 100 µM | EKVX > 100 µM | MOLT-4 > 100 µM | NCI-H23 > 100 µM | NCI-H460 89.3 µM | OVCAR-3 > 100 µM | OVCAR-8 > 100 µM | SF-295 40.4 µM | SF-539 58.6 µM | SK-MEL-28 > 100 µM | SK-MEL-5 > 100 µM | SK-OV-3 > 100 µM | SNB-75 41 µM | SW-620 > 100 µM | UO-31 > 100 µM

O=C1Nc2ccc(Cl)cc2/C1=C\c1c(Cl)nc2sccn12
inactive: CAKI-1 18.7 µM | CCRF-CEM 10.6 µM | HCT-116 4.23 µM | KM12 2.25 µM | MOLT-4 2.59 µM | NCI-H23 59 µM | NCI-H460 1.96 µM | OVCAR-3 3.32 µM | OVCAR-8 50.8 µM | SF-295 3.96 µM | SK-MEL-28 > 100 µM | SK-OV-3 36.8 µM | SNB-75 > 100 µM | SW-620 14.8 µM | UACC-257 > 100 µM | UO-31 > 100 µM

COP(=O)(OC)C(N)Cc1c[nH]c2ccccc12 (stereo unspecified)
inactive: A549 > 100 µM | CAKI-1 > 100 µM | HCT-116 > 100 µM | MOLT-4 > 100 µM | NCI-H23 > 100 µM | NCI-H460 > 100 µM | OVCAR-3 > 100 µM | OVCAR-8 > 100 µM | SF-295 > 100 µM | SK-MEL-28 > 100 µM | SK-MEL-5 > 100 µM | SK-OV-3 > 100 µM | SNB-75 > 100 µM | SW-620 > 100 µM | UACC-257 > 100 µM | UO-31 > 100 µM

O=C1CCC(NC(=O)Cc2ccc(O)cc2)C(=O)N1 (stereo unspecified)
inactive: A549 > 2500 µM | CAKI-1 > 2500 µM | EKVX > 2500 µM | HCT-116 > 2500 µM | KM12 > 2500 µM | NCI-H23 > 2500 µM | NCI-H460 > 2500 µM | OVCAR-3 > 2500 µM | OVCAR-8 > 2500 µM | SF-295 > 2500 µM | SK-MEL-28 > 2500 µM | SK-MEL-5 > 2500 µM | SK-OV-3 1020 µM | SNB-75 589 µM | SW-620 > 2500 µM | UACC-257 > 2500 µM | UO-31 > 2500 µM

CC1CC(C[N+](=O)[O-])CC2(C1)OCCO2 (stereo unspecified)
inactive: A549 > 100 µM | CAKI-1 > 100 µM | CCRF-CEM > 100 µM | HCT-116 > 100 µM | KM12 > 100 µM | MOLT-4 > 100 µM | NCI-H460 > 100 µM | OVCAR-3 > 100 µM | OVCAR-8 > 100 µM | SF-539 > 100 µM | SK-MEL-28 > 100 µM | SK-MEL-5 > 100 µM | SK-OV-3 > 100 µM | SNB-75 > 100 µM | SW-620 > 100 µM | UACC-257 > 100 µM | UO-31 > 100 µM

COc1ccccc1N1C(=O)/C(=C\c2cc(OC)c(OC)c(OC)c2)SC1c1ccccc1 (stereo unspecified)
inactive: A549 57.4 µM | CAKI-1 > 100 µM | CCRF-CEM 6.76 µM | EKVX 13.2 µM | HCT-116 18.5 µM | KM12 21.1 µM | MOLT-4 9.95 µM | NCI-H23 31.4 µM | NCI-H460 51.5 µM | OVCAR-3 37.5 µM | OVCAR-8 42 µM | SF-295 23.1 µM | SF-539 99.3 µM | SK-MEL-28 45.4 µM | SK-MEL-5 14.2 µM | SK-OV-3 21.4 µM | SW-620 53.1 µM | UACC-257 36.1 µM | UO-31 11.5 µM

CC(OC(=O)C(Cc1ccccc1)NC(=O)C(Cc1ccccc1)NC(=O)OC(C)(C)C)C(=O)OCc1ccccc1 (stereo not drawn) (Boc-Phe-Phe-[Lac]-OBn; configuration not given here)
inactive: CAKI-1 > 100 µM | CCRF-CEM > 100 µM | HCT-116 > 100 µM | KM12 > 100 µM | MOLT-4 > 100 µM | NCI-H23 > 100 µM | NCI-H460 > 100 µM | OVCAR-3 > 100 µM | OVCAR-8 > 100 µM | SF-295 > 100 µM | SK-MEL-28 > 100 µM | SK-MEL-5 > 100 µM | SK-OV-3 > 100 µM | SNB-75 93.1 µM | UO-31 > 100 µM
